Results published in patent US20210214375A1 (LUNDBECK LA JOLLA RESEARCH CENTER, INC., priority 2017, published 2021).
Where two headings read alike, the source gives them in different places.

Assays:
Format in all cases: biochemical
MAGL = target: T1, MAGL (Homo sapiens, UniProt Q99685); test: In vitro competitive activity-based protein profiling (gel-based, FP-Rh or HT-01 probe)
T1 construct: Proteomes (human prefrontal cortex or cell membrane fractions); from tissue
T1 sequence (Q99685 1-303): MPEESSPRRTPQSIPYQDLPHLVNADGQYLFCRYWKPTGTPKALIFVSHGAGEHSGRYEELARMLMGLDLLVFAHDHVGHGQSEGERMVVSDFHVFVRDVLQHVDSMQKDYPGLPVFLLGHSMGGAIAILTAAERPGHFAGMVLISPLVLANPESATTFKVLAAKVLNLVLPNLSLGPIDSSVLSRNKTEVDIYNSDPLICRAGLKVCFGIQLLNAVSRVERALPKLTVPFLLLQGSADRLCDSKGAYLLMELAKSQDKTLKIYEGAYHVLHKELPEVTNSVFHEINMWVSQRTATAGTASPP
Procedure: Compounds are tested to assess their MAGL and serine hydrolase activity using the following in vitro and in vivo assays.
(§1) Proteomes (human prefrontal cortex or cell membrane fractions) (50 μL, 1.0 mg/mL total protein concentration) were preincubated with varying concentrations of inhibitors at 37° C. After 30 min, FP—Rh or HT-01 (1.0 μL, 50 μM in DMSO) was added and the mixture was incubated for another 30 min at room temperature. Reactions were quenched with SDS loading buffer (15 μL-4×) and run on SDS-PAGE.

MGLL = target: T2, MGLL (Mus musculus, UniProt O35678); test: In vitro competitive activity-based protein profiling, mouse brain proteome
T2 construct: Brain; from tissue; host or cells: mouse brain proteome
T2 sequence (O35678 1-303): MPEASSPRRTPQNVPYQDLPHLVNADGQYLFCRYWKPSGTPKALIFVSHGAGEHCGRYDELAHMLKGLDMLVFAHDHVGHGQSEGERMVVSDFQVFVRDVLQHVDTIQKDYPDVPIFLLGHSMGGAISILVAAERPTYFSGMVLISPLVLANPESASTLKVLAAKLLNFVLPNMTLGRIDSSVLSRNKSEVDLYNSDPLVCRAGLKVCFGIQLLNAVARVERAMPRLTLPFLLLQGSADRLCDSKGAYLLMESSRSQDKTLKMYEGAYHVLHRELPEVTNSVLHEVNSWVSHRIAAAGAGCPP
Procedure: [Worded in the source for another species; this species is reported under the same test.] as §1

ABHD6 = target: T3, ABHD6 (Mus musculus, UniProt Q8R2Y0); test: In vitro competitive activity-based protein profiling, mouse brain proteome, ABHD6; settings: mouse
T3 construct: Brain; from tissue; host or cells: mouse brain proteome
T3 sequence (Q8R2Y0 1-336): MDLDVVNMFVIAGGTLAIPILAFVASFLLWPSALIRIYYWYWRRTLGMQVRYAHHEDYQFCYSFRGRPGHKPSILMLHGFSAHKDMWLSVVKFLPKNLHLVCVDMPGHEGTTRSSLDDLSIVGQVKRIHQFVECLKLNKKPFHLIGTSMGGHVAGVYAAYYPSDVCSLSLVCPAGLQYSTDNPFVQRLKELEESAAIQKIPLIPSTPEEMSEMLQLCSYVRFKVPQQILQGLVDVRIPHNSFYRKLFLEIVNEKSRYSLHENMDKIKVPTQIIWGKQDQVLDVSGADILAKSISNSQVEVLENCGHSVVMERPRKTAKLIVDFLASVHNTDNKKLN
Procedure: [Worded in the source for another target; this target is reported under the same test.] as §1

[1] = PC3 proteome, read-out: IC50 MGLL PC3 (Human)
[2] = PFC (prefrontal cortex) proteome
[3] = PFC (prefrontal cortex) proteome, read-out: IC50 MGLL PFC (Human)

SMILES	IC50 (MGLL)	IC50 (ABHD6)	IC50 (MAGL; [1])	% Inh MGLL PFC (Human, μM) (MAGL; [2])	also measured
CN(Cc1ccc(C(F)(F)F)cc1N1CCC(N2CCC[C@H]2C(=O)O)CC1)C1(C)CCN(C(=O)OC(C(F)(F)F)C(F)(F)F)CC1 [Example 163, (1-(2-(((1-(((1,1,1,3,3,3-Hexafluoropropan-2-yl)oxy)carbonyl)-4-methylpiperidin-4-yl)(methyl)amino)methyl)-5-(trifluoromethyl)phenyl)piperidin-4-yl)-L-proline]					% Inh MGLL PC3 (Human, μM) (MAGL; PC3 proteome): ### (### is ≥ 75%); % Inh MGLL Brain (Mouse, μM) (MGLL): ### (### is ≥ 75%)
CS(=O)(=O)N1CC2CN(c3cc(Cl)ccc3CN3CCN(C(=O)OC(C(F)(F)F)C(F)(F)F)CC3)CC2C1 (stereo not shown) [Example 203, 1,1,1,3,3,3-Hexafluoropropan-2-yl 4-(4-chloro-2-(5-(methylsulfonyl)hexahydropyrrolo[3,4-c]pyrrol-2(1H)-yl)benzyl)piperazine-1-carboxylate]	0.1 to 1 µM	> 1 µM			
Cc1cccc(CN2CC3(CCN(C(=O)OC(C(F)(F)F)C(F)(F)F)CC3)C2)c1 [Example 86, 1,1,1,3,3,3-Hexafluoropropan-2-yl 2-(3-methylbenzyl)-2,7-diazaspiro[3.5]nonane-7-carboxylate]	< 0.1 µM	< 0.1 µM			
CS(=O)(=O)N1CCCC12CCN(c1cc(C(F)(F)F)ccc1CN1CCN(C(=O)OC(C(F)(F)F)C(F)(F)F)CC1)CC2 [Example 209, 1,1,1,3,3,3-Hexafluoropropan-2-yl-((2-(1-(methylsulfonyl)-1,8-diazaspiro[4.5]decan-8-yl)-4-(trifluoromethyl)benzyl)piperazine-1-carboxylate]	< 0.1 µM	0.1 to 1 µM			
CS(=O)(=O)N1CCCC12CCN(c1cc(Cl)ccc1CN1CCN(C(=O)OC(C(F)(F)F)C(F)(F)F)CC1)CC2 [Example 205, 1,1,1,3,3,3-Hexafluoropropan-2-yl 4-(4-chloro-2-(1-(methylsulfonyl)-1,8-diazaspiro[4.5]decan-8-yl)benzyl)piperazine-1-carboxylate]	0.1 to 1 µM	> 1 µM			
CCN1CCCc2cccc(CN3CC4(CCN(C(=O)OC(C(F)(F)F)C(F)(F)F)CC4)C3)c21 [Example 16, 1,1,1,3,3,3-Hexafluoropropan-2-yl 2-((1-ethyl-1,2,3,4-tetrahydroquinolin-8-yl)methyl)-2,7-diazaspiro[3.5]nonane-7-carboxylate]	< 0.1 µM	0.1 to 1 µM			
O=C(OC(C(F)(F)F)C(F)(F)F)N1CCC2(CC1)CN(Cc1c(Cl)cccc1N1CCC3(CCOCC3)C1)C2 [Example 48, 1,1,1,3,3,3-Hexafluoropropan-2-yl 2-(2-chloro-6-(8-oxa-2-azaspiro[4.5]decan-2-yl)benzyl)-2,7-diazaspiro[3.5]nonane-7-carboxylate]	< 0.1 µM	< 0.1 µM			
CC(=O)N1CC2(CCN(c3ccccc3CN3CCC34CCN(C(=O)OC(C(F)(F)F)C(F)(F)F)CC4)C2)C1 [Example 228, 1,1,1,3,3,3-Hexafluoropropan-2-yl 1-(2-(2-acetyl-2,6-diazaspiro[3.4]octan-6-yl)benzyl)-1,7-diazaspiro[3.5]nonane-7-carboxylate]	0.1 to 1 µM	> 1 µM			
O=C(O)C1CCN(Cc2cc(Cl)cc(C(=O)N3CCCC34CCN(C(=O)OC(C(F)(F)F)C(F)(F)F)CC4)c2)CC1 [Example 11, 1-(3-Chloro-5-(8-(((1,1,1,3,3,3-hexafluoropropan-2-yl)oxy)carbonyl)-1,8-diazaspiro[4.5]decane-1-carbonyl)benzyl)piperidine-4-carboxylic acid]			< 0.1 µM	### (### is ≥ 75%)	
O=C(O)C1CCCCN1c1cc(CN2CC3(CCN(C(=O)OC(C(F)(F)F)C(F)(F)F)CC3)C2)cc(C(F)(F)F)c1 (stereo not shown) [Example 120, 1-(3-((7-(((1,1,1,3,3,3-Hexafluoropropan-2-yl)oxy)carbonyl)-2,7-diazaspiro[3.5]nonan-2-yl)methyl)-5-(trifluoromethyl)phenyl)piperidine-2-carboxylic acid]			< 0.1 µM		
CC1(OCc2cc(N3CCC(C(=O)O)CC3)cc(C(F)(F)F)c2)CCN(C(=O)OC(C(F)(F)F)C(F)(F)F)CC1 [Example 227]			< 0.1 µM		
O=C(O)C1CCN(c2cc(CN3CCC4(CC3)CCN(C(=O)OC(C(F)(F)F)C(F)(F)F)C4)cc(S(F)(F)(F)(F)F)c2)CC1 [Example 226, 1-(3-((2-(((1,1,1,3,3,3-Hexafluoropropan-2-yl)oxy)carbonyl)-2,8-diazaspiro[4.5]decan-8-yl)methyl)-5-(pentafluoro-l6-sulfaneyl)phenyl) piperidine-4-carboxylic acid]			< 0.1 µM		
O=C(OC(C(F)(F)F)C(F)(F)F)N1CCC2(CC1)CCN(C(=O)c1cc(Cl)cc(C(F)(F)F)c1)C2 [Example 110, 1,1,1,3,3,3-Hexafluoropropan-2-yl 2-(3-chloro-5-(trifluoromethyl)benzoyl)-2,8-diazaspiro[4.5]decane-8-carboxylate]			< 0.1 µM		
CN(Cc1cc(C(F)(F)F)cc(C2(C(=O)O)CCCC2)c1)C1(C)CCN(C(=O)OC(C(F)(F)F)C(F)(F)F)CC1 [Example 138, 1-(3-{[(1-{[(1,1,1,3,3,3-Hexafluoropropan-2-yl)oxy]carbonyl}-4-methylpiperidin-4-yl)(methyl)amino]methyl}-5-(trifluoromethyl)phenyl)cyclopentane-1-carboxylic acid]				### (### is ≥ 75%)	IC50 (MAGL; [3]): < 0.1 µM
CN(Cc1cccc(F)c1C1(C(=O)O)CCCC1)C1(C)CCN(C(=O)OC(C(F)(F)F)C(F)(F)F)CC1 [Example 144, 1-(2-Fluoro-6-{[(1-{[(1,1,1,3,3,3-hexafluoropropan-2-yl)oxy]carbonyl}-4-methylpiperidin-4-yl)(methyl)amino]methyl}phenyl) cyclopentane-1-carboxylic acid]			< 0.1 µM	### (### is ≥ 75%)	
CC(C)(C#Cc1ccccc1CN1CCCC12CCN(C(=O)OC(C(F)(F)F)C(F)(F)F)CC2)C(=O)O [Example 145, 4-{2-[(8-{[(1,1,1,3,3,3-Hexafluoropropan-2-yl)oxy]carbonyl}-1,8-diazaspiro[4.5]decan-1-yl)methyl]phenyl]-2,2-dimethylbut-3-ynoic acid]			0.1 to 1 µM	### (### is ≥ 75%)	
O=C(O)c1ccc(CN2CC3(CCN(C(=O)OC(C(F)(F)F)C(F)(F)F)CC3)C2)cc1C(F)(F)F [Example 131, 4-((7-(((1,1,1,3,3,3-Hexafluoropropan-2-yl)oxy)carbonyl)-2,7-diazaspiro[3.5]nonan-2-yl)methyl)-2-(trifluoromethyl) benzoic acid]			0.1 to 1 µM		
CC1(OCc2cc(CN3CCC(C(=O)O)CC3)cc(C(F)(F)F)c2)CCN(C(=O)OC(C(F)(F)F)C(F)(F)F)CC1 [Example 25, 1-(3-(((1-(((1,1,1,3,3,3-Hexafluoropropan-2-yl)oxy)carbonyl)-4-methylpiperidin-4-yl)oxy)methyl)-5-(trifluoromethyl)benzyl)piperidine-4-carboxylic acid]			< 0.1 µM	### (### is ≥ 75%)	
O=C(O)CN1CCN(c2cc(CN3CCCC34CCN(C(=O)OC(C(F)(F)F)C(F)(F)F)CC4)cc(C(F)(F)F)c2)CC1 [Example 2, 2-(4-(3-((8-(((1,1,1,3,3,3-Hexafluoropropan-2-yl)oxy)carbonyl)-1,8-diazaspiro[4.5]decan-1-yl)methyl)-5-(trifluoromethyl)phenyl)piperazin-1-yl)acetic acid]			< 0.1 µM	### (### is ≥ 75%)	IC50 (MAGL; [3]): < 0.1 µM
